Like-named read-outs stand apart in the source and are kept apart here. One block for each compound: values may come before it.
Columns and labels:
VIM-1 = VIM-1 (Pseudomonas aeruginosa, UniProt A0A0F7KYQ8); assay: Enzymatic assay for determination of inhibition constants, reporter substrate method, purified VIM-1; format: biochemical; conditions: for Ki: isolated MBL, competitive inhibition model;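 as to all read-outs here: initial hydrolysis rates of a reporter β-lactam (imipenem, meropenem, cefotaxime or nitrocefin) followed by absorbance change, purified enzyme at 1–70 nM in 50 mM HEPES pH 7.5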
Protocol: (§3) The reaction rate was measured as the variation of absorbance observed upon substrate hydrolysis in a UV-Vis spectrophotometer or microplate reader at a wavelength of 300 nm (imipenem, meropenem), 260 nm (cefotaxime) or 482 nm (nitrocefin) in 50 mM HEPES buffer (pH 7.5) and in the presence of a purified MBL enzyme (such as VIM-1, VIM-2, VIM-4, NDM-1 and IMP-1, at a final concentration ranging 1-70 nM).
(§4) The inhibition constants (Ki) were determined on the basis of a model of competitive inhibition by analyzing the dependence of the ratio v0/vi (v0, hydrolysis velocity in the absence of inhibitor; vi, hydrolysis velocity in the presence of inhibitor) as a function of [I] as already described [Docquier J. D., Lamotte-Brasseur J., Galleni M., Amicosante G., Frère J. M., Rossolini G. M. (2003) J. Antimicrob. […] The slope of the plot of v0/vi vs [I], which corresponds to Km^S/(Km^S+[S])Ki (where Km^S is the Km value of the reporter substrate and [S] its concentration in the reaction mixture) and allowed the calculation of the Ki value. Alternatively, a Dixon plot analysis was carried out, by measuring the initial hydrolysis rates in the presence of variable concentrations of inhibitor and substrate.

VIM-2 = VIM-2 (Escherichia coli, UniProt Q5U7L7); assay: Enzymatic assay for determination of inhibition constants, reporter substrate method, purified VIM-2; format: biochemical; conditions: for % inhibition VIM-2: at 100 μM (maximal tested concentration);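 as to all read-outs here: purified VIM-2 hydrolysing a reporter substrate (imipenem, meropenem, cefotaxime or nitrocefin), reaction rate read as absorbance change, HEPES 50 mM at pH 7.5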
Protocol: as §3, §4

NDM-1 = NDM-1 (Klebsiella pneumoniae, UniProt C7C422); assay: Enzymatic assay for determination of inhibition constants, reporter substrate method, purified NDM-1; format: biochemical; conditions: for Ki: isolated MBL, competitive inhibition model; for % inhibition NDM-1: at 100 μM (maximal tested concentration);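 as to all read-outs here: purified enzyme activity followed as absorbance change from reporter substrate hydrolysis on a UV-Vis spectrophotometer or plate reader, 50 mM HEPES pH 7.5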
Chain of NDM-1 (C7C422 29-270, looked up, species assumed): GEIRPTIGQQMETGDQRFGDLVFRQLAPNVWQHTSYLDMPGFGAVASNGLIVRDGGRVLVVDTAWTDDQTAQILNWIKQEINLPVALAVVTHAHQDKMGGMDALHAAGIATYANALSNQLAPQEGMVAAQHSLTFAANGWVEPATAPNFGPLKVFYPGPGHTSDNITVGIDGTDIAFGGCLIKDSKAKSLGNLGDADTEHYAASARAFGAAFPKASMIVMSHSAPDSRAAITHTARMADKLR

IMP-1 = IMP-1 (Serratia marcescens, UniProt P52699); assay: Enzymatic assay for determination of inhibition constants, reporter substrate method, purified IMP-1; format: biochemical; conditions: for Ki: isolated MBL, competitive inhibition model;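 as to all read-outs here: purified IMP-1 (1-70 nM) hydrolysing a reporter substrate, initial rates followed as absorbance change at 260, 300 or 482 nm in 50 mM HEPES pH 7.5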
Chain of IMP-1 (P52699 19-246, looked up, species assumed): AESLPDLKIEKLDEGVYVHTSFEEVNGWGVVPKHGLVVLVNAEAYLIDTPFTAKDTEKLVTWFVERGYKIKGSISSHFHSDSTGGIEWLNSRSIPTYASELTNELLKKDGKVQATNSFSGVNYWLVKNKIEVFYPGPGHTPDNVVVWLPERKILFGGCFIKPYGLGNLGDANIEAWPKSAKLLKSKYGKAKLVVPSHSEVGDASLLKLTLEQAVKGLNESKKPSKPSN
Protocol: as §3, §4

VIM-4 = VIM-4 (Pseudomonas aeruginosa, UniProt Q8KRJ3); assay: Enzymatic assay for determination of inhibition constants, reporter substrate method, purified VIM-4; format: biochemical; conditions: at 100 μM (maximal tested concentration);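 also: purified VIM-4 (1-70 nM) in 50 mM HEPES pH 7.5, reporter substrate hydrolysis rate tracked by absorbance change (nitrocefin 482 nm, imipenem or meropenem 300 nm, cefotaxime 260 nm)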
Protocol: as §3, §4

[1] = tested on: E. coli AS19 [pLBII-VIM2]; assay: microbe, parasite or virus in culture; format: cell-based, Escherichia coli; conditions: for zone of inhibition at 40 µg/disc: Escherichia coli, read-out: Inhibition zone diameter AS 19, difference between measured diameter and diameter without compound
Protocol: (§1) A] A disk-diffusion test in which the inhibitor was added (40-320 μg) to a disk containing a defined amount of a β-lactam antibiotic (such as 30 μg cefoxitin) was used to evaluate the antimicrobial activity (corresponding to the diameter of the growth inhibition zone, expressed in mm) of the combination when compared of that of the antibiotic alone.
(§2) These tests were performed on isogenic laboratory strains (such as Escherichia coli DH5a or XL-1) producing a defined MBL after its transformation with a pLB-II plasmid derivative (such as pLBII-VIM-2) [Borgianni L., Vandenameele J., Matagne A., Bini L., Bonomo R. A., Frere J. M., Rossolini G. M., Docquier J. D. (2010) Antimicrob. Agents Chemother. 54, 3197-3204] harbouring a cloned gene encoding the functional metallo-β-lactamase. Alternatively, hyperpermeable strains (such as Escherichia coli AS19) were used instead of Escherichia coli DH5α or XL-1.

[2] = Cell membrane integrity assay, LDH release, compound cytotoxicity; format: cell-based; conditions: human, HeLa cells, 0.001 to 1.2 mM, read-out: IC50, compound concentration inducing 50% cytotoxicity (LDH release)
Protocol: Selected compounds were tested for their ability to induce the lysis of eukaryotic cells by measuring the release of lactate dehydrogenase enzyme (LDH) from HeLa cells, after incubating such cells for 24 hours (37° C., 5% CO2) in Dulbecco's modified Eagle medium supplemented with 10% fetal bovine serum, 4.5 mg/ml glucose and 2 mM L-glutamine in the absence and presence of the compound at concentrations ranging from 0.001 to 1.2 mM. LDH activity was determined using commercial kits (such as the CytoTox 96® Non-Radioactive Cytotoxicity Assay, Promega, Madison, Wis., U.S.A.) in the samples, containing HeLa cells incubated with the various concentrations of the assayed compound or with the solvent or buffer used to resuspend such compounds (vehicle control).
Further controls included samples containing the medium only (medium control) or in which cell lysis was induced by the addition of 9% Triton X-100 (maximum LDH release control). The percentage of cytotoxicity was computed as 100×(Sample LDH release)/(maximum LDH release). The variation of the percentage of cytotoxicity is usually dependent on the compound concentration and allowed to compute an IC50 value, corresponding to the compound concentration inducing 50% cytoxicity.

[3] = tested on: K. pneumoniae SI-001 (blaVIM-1+); assay: Broth microdilution MIC of meropenem in absence and presence of MBL inhibitor, SI-001; format: cell-based; conditions: MBL inhibitor fixed at 32 μg/ml, Mueller-Hinton broth, duplicate
Protocol: (§5) This method was performed in agreement with the CLSI recommendations (document M07-A10, 2015, “Methods for Dilution Antimicrobial Susceptibility Tests for Bacteria That Grow Aerobically”).
(§6) MIC values of meropenem (MEM) were determined in duplicate in Mueller-Hinton broth as recommended by CLSI (document M07-A10, 2015), in absence and presence of a fixed concentration of MBL inhibitor (32 μg/ml).

[4] = tested on: K. pneumoniae S1-002 (blaVIM-4+); assay: Broth microdilution MIC of meropenem in absence and presence of MBL inhibitor, S1-002; format: cell-based; conditions: MBL inhibitor fixed at 32 μg/ml, Mueller-Hinton broth, duplicate
Protocol: as §5, §6

[5] = tested on: E. coli LZ2310[pLBII-VIM2] (E. coli K12 ΔnorE ΔmdfA N43 acrA1); format: cell-based, Escherichia coli; conditions: EDTA 220 μg added to cefoxitin disk (30 μg); cefoxitin alone 14 mm
Protocol: as §1, §2

[6] = as listed in Table 2, read-out: Ki on VIM-2
[7] = isolated MBL, competitive inhibition model, read-out: Ki VIM-2
[8] = at 100 μM (maximal tested concentration)

SMILES: COc1ccc(O)c(-c2n[nH]c(=S)n2CCc2ccccc2C(=O)O)c1 [Compound 4, 2-{2-[3-(2-hydroxy-5-methoxyphenyl)-5-sulfanylidene-4,5-dihydro-1H-1,2,4-triazol-4-yl]ethyl}benzoic acid]
melting point: 88 to 89 °C
Ki (VIM-1): > 100 µM
Ki (VIM-2; [6]): < 1 µM
Ki (VIM-2; [7]): < 1 µM
Ki (NDM-1): > 100 µM
Ki (IMP-1): > 100 µM
% inhibition VIM-4 (VIM-4): 80% at 100 μM
zone of inhibition at 40 µg/disc [1]: 4 mm

SMILES: O=C(O)c1ccccc1CCn1c(-c2ccco2)n[nH]c1=S [Compound 12, 2-{2-[3-(furan-2-yl)-5-sulfanylidene-4,5-dihydro-1H-1,2,4-triazol-4-yl]ethyl}benzoic acid]
melting point: 210 to 211 °C
Ki (VIM-2; [6]): < 1 µM
Ki (VIM-2; [7]): < 1 µM
Ki (NDM-1): > 100 µM
IC50 at 24 h [2]: > 1200 µM
Ki (IMP-1): > 100 µM
% inhibition VIM-4 (VIM-4): 70% at 100 μM
zone of inhibition at 40 µg/disc [1]: 3 mm

SMILES: O=C(O)c1ccccc1CCn1c(-c2cccs2)n[nH]c1=S [Compound 13, 2-{2-[3-(thiophen-2-yl)-5-sulfanylidene-4,5-dihydro-1H-1,2,4-triazol-4-yl]ethyl}benzoic acid]
melting point: 195 to 196 °C
Ki (VIM-1): > 100 µM
Ki (VIM-2; [6]): 1 to 10 µM
Ki (VIM-2; [7]): 1 to 10 µM
Ki (NDM-1): > 100 µM
IC50 at 24 h [2]: > 1200 µM
Ki (IMP-1): > 100 µM
zone of inhibition at 40 µg/disc [1]: 4 mm

SMILES: Cc1ccccc1-c1n[nH]c(=S)n1CCc1ccccc1C(=O)O [Compound 14, 2-{2-[3-(2-methylphenyl)-5-sulfanylidene-4,5-dihydro-1H-1,2,4-triazol-4-yl]ethyl}benzoic acid]
melting point: 180 to 181 °C
Ki (VIM-1): 1 to 10 µM
Ki (VIM-2; [6]): < 1 µM
Ki (VIM-2; [7]): < 1 µM
Ki (NDM-1): > 100 µM
IC50 at 24 h [2]: > 1200 µM
Ki (IMP-1): > 100 µM
% inhibition VIM-4 (VIM-4): 80% at 100 μM
zone of inhibition at 40 µg/disc [1]: 3 mm

SMILES: O=C(O)CCCCn1c(-c2ccccc2)n[nH]c1=S [Compound 15, 5-(3-phenyl-5-sulfanylidene-4,5-dihydro-1H-1,2,4-triazol-4-yl)pentanoic acid]
melting point: 176 to 177 °C
Ki (VIM-1): > 100 µM
Ki (VIM-2; [6]): 1 to 10 µM
Ki (VIM-2; [7]): 1 to 10 µM
Ki (NDM-1): > 100 µM
% inhibition IMP-1 (IMP-1; at 200 μM (maximal tested concentration)): 60% at 200 μM
% inhibition VIM-4 (VIM-4): 85% at 100 μM
zone of inhibition at 40 µg/disc [1]: 3 mm

melting point: 108 to 109 °C
Ki (VIM-1): < 1 µM
Ki (VIM-2; [7]): 1 to 10 µM
Ki (NDM-1): 1 to 10 µM
MIC potentiation of meropenem (x.log2 dilutions), K. pneumoniae SI-001 (blaVIM-1+) [3]: 3 log2 dilutions
MIC potentiation of meropenem (x.log2 dilutions), K. pneumoniae S1-002 (blaVIM-4+) [4]: 2 log2 dilutions
Ki (IMP-1): > 100 µM
SMILES: S=c1[nH]nc(-c2ccccc2)n1CCSCc1ccccc1 [Compound 33, 4-[2-(benzylsulfanyl)ethyl]-3-phenyl-4,5-dihydro-1H-1,2,4-triazole-5-thione]

SMILES: O=C(O)C(CCCn1c(-c2ccccc2)n[nH]c1=S)NCc1cccc(O)c1O (stereo not shown) [Compound 67]
% inhibition VIM-1 (VIM-1; [8]): 70% at 100 μM
% inhibition VIM-2 (VIM-2): 55% at 100 μM
Ki (NDM-1): > 100 µM
MIC potentiation of meropenem (x.log2 dilutions), K. pneumoniae SI-001 (blaVIM-1+) [3]: 2 log2 dilutions
MIC potentiation of meropenem (x.log2 dilutions), K. pneumoniae S1-002 (blaVIM-4+) [4]: 2 log2 dilutions
Ki (IMP-1): > 100 µM
% inhibition VIM-4 (VIM-4): 60% at 100 μM

SMILES: O=C(O)C(CCCn1c(-c2ccccc2)n[nH]c1=S)N(Cc1ccccc1)Cc1ccccc1 (stereo not shown) [Compound 68, 2-[Bis(phenylmethyl)amino]-5-(3-phenyl-5-sulfanylidene-4,5-dihydro-1H-1,2,4-triazol-4-yl)pentanoic acid]
Ki (VIM-1): > 100 µM
% inhibition VIM-2 (VIM-2): 65% at 100 μM
Ki (NDM-1): > 100 µM
MIC potentiation of meropenem (x.log2 dilutions), K. pneumoniae SI-001 (blaVIM-1+) [3]: 2 log2 dilutions
MIC potentiation of meropenem (x.log2 dilutions), K. pneumoniae S1-002 (blaVIM-4+) [4]: 2 log2 dilutions
Ki (IMP-1): > 100 µM
% inhibition VIM-4 (VIM-4): 65% at 100 μM

SMILES: O=[N+]([O-])c1ccccc1CSCCn1c(-c2ccccc2)n[nH]c1=S [Compound 75, 4-[2-(2-Nitrobenzylsulfanyl)ethyl]-3-phenyl-4,5-dihydro-1H-1,2,4-triazole-5-thione]
Ki (VIM-1): < 1 µM
Ki (VIM-2; [7]): < 1 µM
% inhibition NDM-1 (NDM-1): 69% at 100 μM
MIC potentiation of meropenem (x.log2 dilutions), K. pneumoniae SI-001 (blaVIM-1+) [3]: 3 log2 dilutions
MIC potentiation of meropenem (x.log2 dilutions), K. pneumoniae S1-002 (blaVIM-4+) [4]: ≥4 log2 dilutions
% inhibition IMP-1 (IMP-1; [8]): 72% at 100 μM

SMILES: O=[N+]([O-])c1ccc(O)c(CSCCn2c(-c3ccccc3)n[nH]c2=S)c1 [Compound 76, 4-[2-(2-Hydroxy-5-Nitrobenzylsulfanyl)ethyl]-3-phenyl-4,5-dihydro-1H-1,2,4-triazole-5-thione]
Ki (VIM-1): < 1 µM
Ki (VIM-2; [7]): < 1 µM
% inhibition NDM-1 (NDM-1): 77% at 100 μM
MIC potentiation of meropenem (x.log2 dilutions), K. pneumoniae SI-001 (blaVIM-1+) [3]: ≥4 log2 dilutions
MIC potentiation of meropenem (x.log2 dilutions), K. pneumoniae S1-002 (blaVIM-4+) [4]: 2 log2 dilutions
% inhibition IMP-1 (IMP-1; [8]): 62% at 100 μM

SMILES: S=c1[nH]nc(-c2ccccc2)n1CCSCCc1ccccc1 [Compound 77, 4-[2-(2-Phenylethylsulfanyl)ethyl]-3-phenyl-4,5-dihydro-1H-1,2,4-triazole-5-thione]
Ki (VIM-1): < 1 µM
Ki (VIM-2; [7]): 1 to 10 µM
% inhibition NDM-1 (NDM-1): 92% at 100 μM
MIC potentiation of meropenem (x.log2 dilutions), K. pneumoniae SI-001 (blaVIM-1+) [3]: 3 log2 dilutions
MIC potentiation of meropenem (x.log2 dilutions), K. pneumoniae S1-002 (blaVIM-4+) [4]: ≥4 log2 dilutions
% inhibition IMP-1 (IMP-1; [8]): 89% at 100 μM

Ki (VIM-1): < 1 µM
Ki (VIM-2; [7]): < 1 µM
Ki (NDM-1): 1 to 10 µM
MIC potentiation of meropenem (x.log2 dilutions), K. pneumoniae SI-001 (blaVIM-1+) [3]: 3 log2 dilutions
MIC potentiation of meropenem (x.log2 dilutions), K. pneumoniae S1-002 (blaVIM-4+) [4]: 2 log2 dilutions
Ki (IMP-1): 10 to 100 µM
SMILES: O=C(O)C(CSCCn1c(-c2ccccc2)n[nH]c1=S)c1ccccc1 (stereo not shown) [Compound 78, 2-Phenyl-3-[2-(3-phenyl-5-thioxo-1,4-dihydro-1,2,4-triazol-4-yl)ethylthio]-propionic acid]

Ki (VIM-1): < 1 µM
Ki (VIM-2; [7]): < 1 µM
Ki (NDM-1): 10 to 100 µM
MIC potentiation of meropenem (x.log2 dilutions), K. pneumoniae SI-001 (blaVIM-1+) [3]: 2 log2 dilutions
MIC potentiation of meropenem (x.log2 dilutions), K. pneumoniae S1-002 (blaVIM-4+) [4]: 3 log2 dilutions
Ki (IMP-1): 10 to 100 µM
SMILES: Cc1ccccc1-c1n[nH]c(=S)n1CCSCc1ccccc1 [Compound 80, 4-[2-(Benzylthio)ethyl]-5-(o-tolyl)-2,4-dihydro-1,2,4-triazole-3-thione]

SMILES: O=C(O)C(CSCCn1c(-c2cccc(-c3ccccc3)c2)n[nH]c1=S)c1ccccc1 (stereo not shown) [Compound 81, 3-{2-[3-(3-Biphenylyl)-5-thioxo-1,4-dihydro-1,2,4-triazol-4-yl]ethylthio}-hydratropic acid]
Ki (VIM-1): 1 to 10 µM
Ki (VIM-2; [7]): < 1 µM
% inhibition NDM-1 (NDM-1): 77% at 100 μM
MIC potentiation of meropenem (x.log2 dilutions), K. pneumoniae SI-001 (blaVIM-1+) [3]: 2 log2 dilutions
MIC potentiation of meropenem (x.log2 dilutions), K. pneumoniae S1-002 (blaVIM-4+) [4]: 3 log2 dilutions
% inhibition IMP-1 (IMP-1; [8]): 56% at 100 μM

SMILES: O=C(O)CN(CCN(CC(=O)O)CC(=O)O)CC(=O)O [EDTA, reference compound]
Inhibition zone diameter LZ 2310 [5]: 30 mm
Inhibition zone diameter AS 19 ([1]; EDTA 220 μg added to cefoxitin disk (30 μg), cefoxitin alone 16 mm): 26 mm

From patent publication US20220000841A1, “INHIBITORS OF METALLO-BETA-LACTAMASES” (CENTRE NATIONAL DE LA RECHERCHE SCIENTIFIQUE, priority 2018, published 2022)
